The source of these data is patent US10246456B2, “IRAK4 inhibiting agents” (BIOGEN MA INC., priority 2014, dated 2019).

pIC50: −log10 of the molar value. Bounds are passed on as bounds.

The term pIC50 denotes the negative decadic logarithm of the IC50, by convention in mol/L. A high value points to a low IC50.

Chain of IRAK4 (Q9NWZ3 whole entry, species assumed): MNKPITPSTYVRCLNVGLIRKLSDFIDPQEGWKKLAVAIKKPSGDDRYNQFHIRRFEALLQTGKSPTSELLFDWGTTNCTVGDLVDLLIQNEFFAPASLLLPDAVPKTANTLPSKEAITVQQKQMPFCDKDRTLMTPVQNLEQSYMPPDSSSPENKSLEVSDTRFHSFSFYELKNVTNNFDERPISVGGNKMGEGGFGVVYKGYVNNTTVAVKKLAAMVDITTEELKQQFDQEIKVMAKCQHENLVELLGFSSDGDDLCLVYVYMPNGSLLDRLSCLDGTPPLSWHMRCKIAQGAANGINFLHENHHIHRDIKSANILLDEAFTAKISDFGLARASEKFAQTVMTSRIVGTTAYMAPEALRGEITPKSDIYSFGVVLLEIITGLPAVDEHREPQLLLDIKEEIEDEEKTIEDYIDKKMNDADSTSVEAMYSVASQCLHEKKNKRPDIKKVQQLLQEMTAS

This assay concerns the target IRAK4 (Homo sapiens (Human), UniProt Q9NWZ3). As to the kind of experiment: IRAK-4 AlphaScreen biochemical kinase assay. To be noted: 1 nM IRAK4, 1 mM ATP, 3.5 h at RT. In outline: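 AlphaScreen read-out: streptavidin beads bind the biotinylated peptide and protein A beads bind the anti-phosphothreonine antibody, so energy transfer reports phosphorylation of the peptide. The kinase is human IRAK-4.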
The compound `Cc1cccc(-n2ncc3ccc(-c4cccc(C5(N)CC5)n4)cc32)n1` [Example 262, 1-(6-(1-(6-methylpyridin-2-yl)-1H-indazol-6-yl)pyridin-2-yl)cyclopropanamine] showed a pIC50 of 6.00 to 7.00.

For the compound `CCC(N)c1cccc(-c2ccc3cnn(-c4cccc(C)n4)c3c2)n1` (stereo not shown) [Example 263, 1-(6-(1-(6-methylpyridin-2-yl)-1H-indazol-6-yl)pyridin-2-yl)propan-1-amine], the pIC50 is > 7.00.

For the compound `CCC[C@@H](N)c1cccc(-c2ccc3cnn(-c4cccc(C)n4)c3c2)n1` [Example 264, (R)-1-(6-(1-(6-methylpyridin-2-yl)-1H-indazol-6-yl)pyridin-2-yl)butan-1-amine], the pIC50 is > 7.00.

For `CCC[C@H](N)c1cccc(-c2ccc3cnn(-c4cccc(C)n4)c3c2)n1` [Example 265, (S)-1-(6-(1-(6-methylpyridin-2-yl)-1H-indazol-6-yl)pyridin-2-yl)butan-1-amine], the pIC50 is > 7.00.

`Cc1cccc(-n2ncc3ccc(-c4ccc(Cl)c(C(C)N)n4)cc32)n1` (stereo not shown) [Example 266, 1-(3-chloro-6-(1-(6-methylpyridin-2-yl)-1H-indazol-6-yl)pyridin-2-yl)ethanamine] gave a pIC50 of 6.00 to 7.00.

Compound `Cc1cccc(-n2ncc3ccc(-c4cccc(C(N)C(N)=O)n4)cc32)n1` (stereo not shown) [Example 267, 2-amino-2-(6-(1-(6-methylpyridin-2-yl)-1H-indazol-6-yl)pyridin-2-yl)acetamide] gave a pIC50 of 6.00 to 7.00.

`CCCC(N)c1cccc(-c2ccc3cnn(-c4cccc(C(F)(F)F)n4)c3c2)n1` (stereo not shown) [Example 268, 1-(6-(1-(6-(trifluoromethyl)pyridin-2-yl)-1H-indazol-6-yl)pyridin-2-yl)butan-1-amine]: the pIC50 is > 7.00.

For `CCC(N)c1cccc(-c2ccc3cnn(-c4cccc(C(N)=O)n4)c3c2)n1` (stereo not shown) [Example 269, 6-(6-(6-(1-aminopropyl)pyridin-2-yl)-1H-indazol-1-yl)picolinamide], the negative-log IC50 (pIC50) was > 7.00.

On to `CC(N)c1cc(N)cc(-c2ccc3cnn(-c4cccc(C(F)(F)F)n4)c3c2)n1` (stereo not shown) [Example 270, 2-(1-aminoethyl)-6-(1-(6-(trifluoromethyl)pyridin-2-yl)-1H-indazol-6-yl)pyridin-4-amine], for which the pIC50 was > 7.00.

For the compound `Cc1cccc(-n2ncc3ccc(-c4cccc(C(N)CO)n4)cc32)n1` (stereo not shown) [Example 271, 2-amino-2-(6-(1-(6-methylpyridin-2-yl)-1H-indazol-6-yl)pyridin-2-yl)ethanol], the pIC50 was > 7.00.

Compound `COC(=O)C(N)c1cccc(-c2ccc3cnn(-c4cccc(C)n4)c3c2)n1` (stereo not shown) [Example 272, methyl 2-amino-2-(6-(1-(6-methylpyridin-2-yl)-1H-indazol-6-yl)pyridin-2-yl)acetate] showed a pIC50 of 6.00 to 7.00.

As for `Cc1cccc(-n2ncc3ccc(-c4cccc(C(N)C(=O)O)n4)cc32)n1` (stereo not shown) [Example 273, 2-amino-2-(6-(1-(6-methylpyridin-2-yl)-1H-indazol-6-yl)pyridin-2-yl)acetic acid], the pIC50 is > 7.00.

For the compound `CCCC(N)c1cccc(-c2ccc3cnn(-c4cccc(C(N)=O)n4)c3c2)n1` (stereo not shown) [Example 274, 6-(6-(6-(1-aminobutyl)pyridin-2-yl)-1H-indazol-1-yl)picolinamide], the pIC50 is > 7.00.

As for `CC(N)c1cccc(-c2ccc3cnn(-c4cccc(C(C)(C)O)n4)c3c2)n1` (stereo not shown) [Example 278, 2-(6-(6-(6-(1-aminoethyl)pyridin-2-yl)-1H-indazol-1-yl)pyridin-2-yl)propan-2-ol], the pIC50 is > 7.00.

As to `COCc1cccc(-n2ncc3ccc(-c4cccc(C(C)N)n4)cc32)n1` (stereo not shown) [Example 279, 1-(6-(1-(6-(methoxymethyl)pyridin-2-yl)-1H-indazol-6-yl)pyridin-2-yl)ethanamine], the pIC50 is > 7.00.

For `CCCC(N)c1cccc(-c2ccc3cnn(-c4cccc(CO)n4)c3c2)n1` (stereo not shown) [Example 280, (6-(6-(6-(1-aminobutyl)pyridin-2-yl)-1H-indazol-1-yl)pyridin-2-yl)methanol], the pIC50 was > 7.00.
